Target: T1, wild-type FLT3 receptor (Homo sapiens, UniProt P36888)
T1 construct: host or cells: Baf3 (murine B cell lymphoma line), stably transfected
T1 sequence (P36888 27-993): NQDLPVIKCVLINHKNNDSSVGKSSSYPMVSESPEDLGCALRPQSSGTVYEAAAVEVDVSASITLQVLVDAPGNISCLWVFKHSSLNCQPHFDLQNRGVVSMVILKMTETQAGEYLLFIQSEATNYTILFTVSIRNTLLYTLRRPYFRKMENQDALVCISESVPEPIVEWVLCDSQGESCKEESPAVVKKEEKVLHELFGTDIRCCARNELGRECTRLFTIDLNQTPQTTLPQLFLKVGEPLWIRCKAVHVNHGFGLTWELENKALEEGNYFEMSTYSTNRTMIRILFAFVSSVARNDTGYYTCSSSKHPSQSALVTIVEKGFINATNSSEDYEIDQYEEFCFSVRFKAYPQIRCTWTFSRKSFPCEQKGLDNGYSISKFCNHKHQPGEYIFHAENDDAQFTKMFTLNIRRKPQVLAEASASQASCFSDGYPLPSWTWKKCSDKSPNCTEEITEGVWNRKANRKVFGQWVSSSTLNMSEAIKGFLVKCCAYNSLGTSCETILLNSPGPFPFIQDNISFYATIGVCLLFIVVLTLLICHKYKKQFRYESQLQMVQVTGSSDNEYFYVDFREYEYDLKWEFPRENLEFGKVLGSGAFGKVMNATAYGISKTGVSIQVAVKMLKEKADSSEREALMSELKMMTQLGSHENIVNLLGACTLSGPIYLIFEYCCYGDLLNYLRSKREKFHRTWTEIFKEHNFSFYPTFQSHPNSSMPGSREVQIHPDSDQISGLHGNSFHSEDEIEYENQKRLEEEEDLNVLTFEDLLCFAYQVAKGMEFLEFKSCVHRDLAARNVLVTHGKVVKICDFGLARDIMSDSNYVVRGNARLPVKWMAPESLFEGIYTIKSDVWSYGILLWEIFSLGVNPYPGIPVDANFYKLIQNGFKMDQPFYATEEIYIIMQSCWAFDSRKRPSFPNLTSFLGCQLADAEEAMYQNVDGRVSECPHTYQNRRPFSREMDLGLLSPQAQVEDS
Assay: Cell-based FLT3 receptor ELISA (FLT ligand-induced phosphorylation in Baf3 FLT3 cells)
Details: 100 ng/mL Flt ligand, uncertainty ±20%
Summary of the method: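 Receptor phosphotyrosine measured by sandwich ELISA (anti-FLT3 capture, HRP anti-pTyr, luminescence) in FLT3-transfected murine Baf3 cells given 1 h compound pretreatment and 10 min 100 ng/mL FLT ligand after overnight low-serum starvation; triplicates, IC50 from nonlinear regression.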

Row | IC50 [nM] | SMILES
1 | 900 | COc1cc2ncnc(C3CCN(C(=O)Nc4ccc5[nH]ccc5c4)CC3)c2cc1OC [Example 23, 4-(6,7-Dimethoxy-quinazolin-4-yl)-piperidine-1-carboxylic acid (1H-indol-5-yl)-amide]
2 | 58 | O=C(Nc1ccc(N2CCOCC2)cc1)N1CCC(c2ncnc3cc(N4CC[C@H](O)C4)ccc23)CC1 [Example 128, 4-[7-(3-Hydroxy-pyrrolidin-1-yl)-quinazolin-4-yl]-piperidine-1-carboxylic acid (4-morpholin-4-yl-phenyl)-amide]
3 | 78 | O=C(Nc1ccc(N2CCOCC2)cc1)N1CCC(c2ncnc3cc(N4CCNC4=O)ccc23)CC1 [Compound 197, 4-[7-(2-Oxo-imidazolidin-1-yl)-quinazolin-4-yl]-piperidine-1-carboxylic acid (4-morpholin-4-yl-phenyl)-amide]
4 | 42 | O=C(Nc1ccc(N2CCCC2)cc1)N1CCC(c2ncnc3cc(OCCN4CCC[C@H]4CO)ccc23)CC1 [Example 152, (S)-4-{7-[2-(2-Hydroxymethyl-pyrrolidin-1-yl)-ethoxy]-quinazolin-4-yl}-piperidine-1-carboxylic acid (4-pyrrolidin-1-yl-phenyl)-amide]
5 | 5 | O=C(Nc1ccc(N2CCCC2)cc1)N1CCC(c2ncnc3cc(N4CCOCC4)ccc23)CC1 [Compound 181, 4-(7-Morpholin-4-yl-quinazolin-4-yl)-piperidine-1-carboxylic acid (4-pyrrolidin-1-yl-phenyl)-amide]
6 | 31 | CCN(CC)CCCOc1ccc2c(C3CCN(C(=O)Nc4ccc(N5CCOCC5)cc4)CC3)ncnc2c1 [Example 134, 4-[7-(3-Diethylamino-propoxy)-quinazolin-4-yl]-piperidine-1-carboxylic acid (4-morpholin-4-yl-phenyl)-amide]
7 | 14 | O=C(Nc1ccc(N2CCOCC2)cc1)N1CCC(c2ncnc3cc(N4CCOCC4)ccc23)CC1 [Example 145, 4-(7-Morpholin-4-yl-quinazolin-4-yl)-piperidine-1-carboxylic acid (4-morpholin-4-yl-phenyl)-amide]
8 | 104 | O=C(Nc1ccc(N2CCCC2)cc1)N1CCC(c2ncnc3cc(OC4CCOCC4)ccc23)CC1 [Compound 189, 4-[7-(Tetrahydro-pyran-4-yloxy)-quinazolin-4-yl]-piperidine-1-carboxylic acid (4-pyrrolidin-1-yl-phenyl)-amide]
9 | 11 | CS(=O)(=O)N1CCN(CCCOc2ccc3c(C4CCN(C(=O)Nc5ccc(N6CCCC6)cc5)CC4)ncnc3c2)CC1 [Example 164, 4-{7-[3-(4-Methanesulfonyl-piperazin-1-yl)-propoxy]-quinazolin-4-yl}-piperidine-1-carboxylic acid (4-pyrrolidin-1-yl-phenyl)-amide]
10 | 59 | O=C(Nc1ccc(N2CCCC2)cc1)N1CCC(c2ncnc3cc(OCCCN4CCC[C@H]4CO)ccc23)CC1 [Example 161, (S)-4-{7-[3-(2-Hydroxymethyl-pyrrolidin-1-yl)-propoxy]-quinazolin-4-yl}-piperidine-1-carboxylic acid (4-pyrrolidin-1-yl-phenyl)-amide]
11 | 19 | CN(C)[C@@H]1CCN(c2ccc3c(C4CCN(C(=O)Nc5ccc(N6CCOCC6)cc5)CC4)ncnc3c2)C1 [Example 150, (R)-4-[7-(3-Dimethylamino-pyrrolidin-1-yl)-quinazolin-4-yl]-piperidine-1-carboxylic acid (4-morpholin-4-yl-phenyl)-amide]
12 | 16 | CN1CCN(CCOc2ccc3c(C4CCN(C(=O)Nc5ccc(N6CCCC6)cc5)CC4)ncnc3c2)CC1 [Example 157, 4-{7-[2-(4-Methyl-piperazin-1-yl)-ethoxy]-quinazolin-4-yl}-piperidine-1-carboxylic acid (4-pyrrolidin-1-yl-phenyl)-amide]
13 | 12 | CCN1CCN(c2ccc3c(C4CCN(C(=O)Nc5ccc(N6CCCC6)cc5)CC4)ncnc3c2)CC1 [Compound 187, 4-[7-(4-Ethyl-piperazin-1-yl)-quinazolin-4-yl]-piperidine-1-carboxylic acid (4-pyrrolidin-1-yl-phenyl)-amide]
14 | 3 | O=C(Nc1ccc(N2CCCC2)cc1)N1CCC(c2ncnc3cc(N4CCN(c5ncccn5)CC4)ccc23)CC1 [Compound 193, 4-[7-(4-Pyrimidin-2-yl-piperazin-1-yl)-quinazolin-4-yl]-piperidine-1-carboxylic acid (4-pyrrolidin-1-yl-phenyl)-amide]
15 | 4 | O=C(Nc1ccc(N2CCCC2)cc1)N1CCC(c2ncnc3cc(N4CCNC4=O)ccc23)CC1 [Compound 178, 4-[7-(2-Oxo-imidazolidin-1-yl)-quinazolin-4-yl]-piperidine-1-carboxylic acid (4-pyrrolidin-1-yl-phenyl)-amide]
16 | 5 | CS(=O)(=O)N1CCN(c2ccc3c(C4CCN(C(=O)Nc5ccc(N6CCOCC6)cc5)CC4)ncnc3c2)CC1 [Example 142, 4-[7-(4-Methanesulfonyl-piperazin-1-yl)-quinazolin-4-yl]-piperidine-1-carboxylic acid (4-morpholin-4-yl-phenyl)-amide]
17 | 2 | COc1cc2ncnc(C3CCN(C(=O)Nc4ccc(C5CCCCC5)cc4)CC3)c2cc1OC [Example 21, 4-(6,7-Dimethoxy-quinazolin-4-yl)-piperidine-1-carboxylic acid (4-cyclohexyl-phenyl)-amide]
18 | 11 | O=C(Nc1ccc(N2CCCC2)cc1)N1CCC(c2ncnc3cc(N4CCN(c5ccncc5)CC4)ccc23)CC1 [Compound 194, 4-[7-(4-Pyridin-4-yl-piperazin-1-yl)-quinazolin-4-yl]-piperidine-1-carboxylic acid (4-pyrrolidin-1-yl-phenyl)-amide]
19 | 16 | CC(=O)N1CCN(c2ccc3c(C4CCN(C(=O)Nc5ccc(N6CCCC6)cc5)CC4)ncnc3c2)CC1 [Example 166, 4-[7-(4-Acetyl-piperazin-1-yl)-quinazolin-4-yl]-piperidine-1-carboxylic acid (4-pyrrolidin-1-yl-phenyl)-amide]
20 | 24 | O=C(Nc1ccc(N2CCCC2)cc1)N1CCC(c2ncnc3cc(N4CCSCC4)ccc23)CC1 [Compound 182, 4-(7-Thiomorpholin-4-yl-quinazolin-4-yl)-piperidine-1-carboxylic acid (4-pyrrolidin-1-yl-phenyl)-amide]
21 | 3 | COCCN1CCN(c2ccc3c(C4CCN(C(=O)Nc5ccc(N6CCCC6)cc5)CC4)ncnc3c2)CC1 [Compound 186, 4-{7-[4-(2-Methoxy-ethyl)-piperazin-1-yl]-quinazolin-4-yl}-piperidine-1-carboxylic acid (4-pyrrolidin-1-yl-phenyl)-amide]
22 | 17 | COc1cc2ncnc(C3CCN(C(=O)Nc4ccc(N5CCCCC5)cc4)CC3)c2cc1OC [Example 19, 4-(6,7-Dimethoxy-quinazolin-4-yl)-piperidine-1-carboxylic acid (4-piperidin-1-yl-phenyl)-amide]
23 | 130 | O=C(Nc1ccc(N2CCCC2)cc1)N1CCC(c2ncnc3cc(Oc4cccnc4)ccc23)CC1 [Example 174, 4-[7-(Pyridin-3-yloxy)-quinazolin-4-yl]-piperidine-1-carboxylic acid (4-pyrrolidin-1-yl-phenyl)-amide]
24 | 10 | CC(=O)N1CCC[C@H]1COc1ccc2c(C3CCN(C(=O)Nc4ccc(N5CCCC5)cc4)CC3)ncnc2c1 [Example 162, (S)-4-[7-(1-Acetyl-pyrrolidin-2-ylmethoxy)-quinazolin-4-yl]-piperidine-1-carboxylic acid (4-pyrrolidin-1-yl-phenyl)-amide]
25 | 41 | O=C(Nc1ccc(N2CCOCC2)cc1)N1CCC(c2ncnc3cc(N4CCN(CCO)CC4)ccc23)CC1 [Example 137, 4-{7-[4-(2-Hydroxy-ethyl)-piperazin-1-yl]-quinazolin-4-yl}-piperidine-1-carboxylic acid (4-morpholin-4-yl-phenyl)-amide]
26 | 170 | CN(C)CC(=O)N1CCN(c2ccc3c(C4CCN(C(=O)Nc5ccc(N6CCOCC6)cc5)CC4)ncnc3c2)CC1 [Example 144, 4-{7-[4-(2-Dimethylamino-acetyl)-piperazin-1-yl]-quinazolin-4-yl}-piperidine-1-carboxylic acid (4-morpholin-4-yl-phenyl)-amide]
27 | 10 | CS(=O)(=O)N1CC(Oc2ccc3c(C4CCN(C(=O)Nc5ccc(N6CCCC6)cc5)CC4)ncnc3c2)C1 [Example 171, 4-[7-(1-Methanesulfonyl-azetidin-3-yloxy)-quinazolin-4-yl]-piperidine-1-carboxylic acid (4-pyrrolidin-1-yl-phenyl)-amide]

— US20070004660A1, “Synergistic Modulation of Flt3 Kinase Using Alkylquinolines and Alkylquinazolines” (priority 2005, published 2007)
